In PubChem BioAssay (NCI):
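How tested: cells in 96-well plates exposed to compound for 48 hours at five concentrations. TGI marks complete inhibition of growth.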

Legend:
Assay in all cases: growth of human tumour cells (NCI), 48 h
[1] = test system: HOP-92 NSCLC
[2] = test system: PC-3 prostate
[3] = test system: TK-10 renal
[4] = test system: BT-549 breast
[5] = test system: HCT-15 colon
[6] = test system: SNB-75 CNS
[7] = test system: IGROV1 ovarian
[8] = test system: MOLT-4 leukemia
[9] = test system: RPMI-8226 leukemia
[10] = test system: SR leukemia
[11] = test system: SK-MEL-5 melanoma
[12] = test system: KM12 colon
[13] = test system: MALME-3M melanoma
[14] = test system: RXF 393 renal
[15] = test system: OVCAR-4 ovarian
[16] = test system: HS 578T breast
[17] = test system: SW-620 colon
[18] = test system: SK-MEL-28 melanoma
[19] = test system: HL-60(TB) leukemia
[20] = test system: SF-295 CNS
[21] = test system: NCI-H460 lung
[22] = test system: EKVX NSCLC
[23] = test system: LOX IMVI melanoma
[24] = test system: UO-31 renal
[25] = test system: OVCAR-5 ovarian
[26] = test system: UACC-62 melanoma
[27] = test system: OVCAR-3 ovarian
[28] = test system: U251 CNS
[29] = test system: HT29 colon
[30] = test system: COLO 205 colon
[31] = test system: SK-OV-3 ovarian
[32] = test system: MDA-MB-435
[33] = test system: SNB-19 CNS
[34] = test system: M14 melanoma
[35] = test system: NCI-H23 lung
[36] = test system: HCC-2998 colon
[37] = test system: DU-145 prostate
[38] = test system: NCI-H226 lung
[39] = test system: NCI/ADR-RES ovarian
[40] = test system: HOP-62 NSCLC
[41] = test system: ACHN renal
[42] = test system: T-47D breast
[43] = test system: OVCAR-8 ovarian
[44] = test system: UACC-257 melanoma
[45] = test system: CAKI-1 renal
[46] = test system: CCRF-CEM leukemia
[47] = test system: SK-MEL-2 melanoma
[48] = test system: HCT-116 colon
[49] = test system: SF-268 CNS
[50] = test system: 786-0 renal
[51] = test system: MDA-N
[52] = test system: SF-539 CNS
[53] = test system: MDA-MB-231 breast
[54] = test system: K-562 leukemia
[55] = test system: A549 NSCLC
[56] = test system: SN12C renal

Compound: O=C(Nc1ccccc1)OCCN=c1c2ccccc2ccc2ccccc12
- TGI [1]: 53.2 µM
- TGI [2]: 49.4 µM
- TGI [3]: > 100 µM
- TGI [4]: 34.1 µM
- TGI [5]: > 100 µM
- TGI [6]: 80.9 µM
- TGI [7]: > 100 µM
- TGI [8]: 42.6 µM
- TGI [9]: 42.2 µM
- TGI [10]: 54.5 µM
- TGI [11]: 31.2 µM
- TGI [12]: 44.4 µM
- TGI [13]: 46 µM
- TGI [14]: 75.9 µM
- TGI [15]: > 100 µM
- TGI [16]: 51.3 µM
- TGI [17]: > 100 µM
- TGI [18]: 60.9 µM
- TGI [19]: 44.9 µM
- TGI [20]: 39 µM
- TGI [21]: 59.1 µM
- TGI [22]: 92.4 µM
- TGI [23]: 44.5 µM
- TGI [24]: 39.9 µM
- TGI [25]: > 100 µM
- TGI [26]: 49.1 µM
- TGI [27]: 44.2 µM
- TGI [28]: 69.9 µM
- TGI [29]: 38.8 µM
- TGI [30]: 51.4 µM
- TGI [31]: > 100 µM
- TGI [32]: 79.6 µM
- TGI [33]: 62.7 µM
- TGI [34]: 40.8 µM
- TGI [35]: > 100 µM
- TGI [36]: 25.1 µM
- TGI [37]: > 100 µM
- TGI [38]: 57.1 µM
- TGI [39]: 65.9 µM
- TGI [40]: > 100 µM
- TGI [41]: 61.8 µM
- TGI [42]: 43.5 µM
- TGI [43]: 84 µM
- TGI [44]: 42.2 µM
- TGI [45]: 90.6 µM
- TGI [46]: 50.4 µM
- TGI [47]: 29.1 µM
- TGI [48]: 35.9 µM
- TGI [49]: > 100 µM
- TGI [50]: > 100 µM
- TGI [51]: 39 µM
- TGI [52]: 37 µM
- TGI [53]: > 100 µM
- TGI [54]: 51.1 µM
- TGI [55]: > 100 µM
- TGI [56]: > 100 µM
